These results are taken from PMC6130489, “Caffeic acid methyl and ethyl esters exert potential antidiabetic effects on glucose and lipid metabolism in cultured murine insulin-sensitive cells through mechanisms implicating activation of AMPK” (Pharmaceutical Biology, 2017).

Data set [1] relates to AMPK. Description: Western immunoblot phospho-AMPK in 3T3-L1 adipocytes. Type of data set: cell-based, mouse. Conditions: 100 μM (Figure 4 legend), phospho-AMPK/pan-AMPK. The method, then: (§1) Insulin (100 nM) or aminoimidazole carboxamide ribonucleotide (AICAR; 1 mM) were added to some vehicle-treated wells 30 min prior to the end of the treatment and served as the positives controls. Protein content was assayed by the bicinchoninic acid method (Thermo Scientific Pierce Protein Research, Rockford, IL) standardized to bovine serum albumin. Western immunoblotting was performed as described elsewhere (Eid et al. [2010]). Membranes were incubated overnight with phospho-AMPK, phospho-Akt, GLUT4, GLUT1 and β-actin antibodies (1:1000 dilution, Cell Signalling Technology, Danvers, MA), or with PPAR-γ, SREBP-1 (1:200, Santa Cruze Biotechnology, Santa Cruz, CA), followed by incubation with HRP-coupled secondary antibody (1:10,000) for 1 h. Immunoreactive bands were visualized by enhanced chemiluminescence and quantified by the Scion Image program (Scion Corporation, Frederick, MD). Experiments were repeated on 3 different passages of cells, each passage containing all conditions in parallel.
Figure 4. CAME and CAEE inhibit C/EBP-β and PPAR-γ protein expression through mechanisms implicating AMPK pathway. Shown are representative blots of 3T3-adipocytes treated with the maximum nontoxic concentration (100 μM) of either CAME or CAEE. […] Data are expressed as C/EBP-β/β-actin (D), PPAR-γ/β-actin (E), phospho-Akt/pan-Akt (F) and phospho-AMPK/pan-AMPK (G). […]

Another data set has as its system C2C12 cells. Set-up: method as in Eid et al. [2010]. As to conditions: cultured C2C12 cells; ref Eid et al. [2010]; cited from earlier work.
The subject of another data set is L6 GLUT4myc myotubes. Put plainly: 3H-Deoxyglucose uptake assay. Type of data set: cell-based, rat. Conditions: 50 μM, 18 h; for 2-deoxyglucose uptake rate: basal (DMSO) 10.1 ± 0.5. The method, then: Measurement of glucose uptake was performed as previously described (Eid et al. [2010]) using [^3H]-2-deoxyglucose (TRK-383, Amersham Biosciences, Buckinghamshire, UK). Nonspecific uptake was measured in the presence of cytochalasin B (10 μM) and was subtracted from all values.
(§2) Figure 1. (A) CAME and CAEE increase ^3H-deoxyglucose uptake in L6 GLUT4myc myotubes. Cells were treated with 50 μM of either CAME, CAEE, or with vehicle (0.1% DMSO) for 18 h. 100 nM insulin served as the positive control and was applied for the last 15 min of the treatment in vehicle-treated cells. Glucose uptake was performed as described in Materials and Methods section. (B) CAME and CAEE stimulate GLUT4 translocation in L6 GLUT4myc myotubes. Cells were treated as previously described, cell surface GLUT4myc was detected by an enzyme-linked colorimetric assay. By the end of the treatment, L6- GLUT4myc cells were labeled with anti-c-myc antibody as described in Materials and Methods section. Results represent the means ± SEM of three independent experiments, and 3-4 cells were analyzed for each condition per experiment. *Indicates a significant (p ≤ 0.05) difference, **(p < 0.01) from the vehicle control group as assessed by ANOVA. […] L6 myotubes treated with CAME or CAEE (50 μM each), DMSO (0.1%) for 18 h. Insulin (100 nM) and AICAR (2 mM) both applied for 30 min and served as positive controls. Immunoblots were probed with anti phospho-AMPK (Thr 172), anti-GLUT4, anti-GLUT1 and anti-phospho-Akt (Ser 473) antibodies as described in Materials and Methods section. Anti-β-actin antibody was used as a loading control. Representative blots are shown in panel C. Data are expressed as (D) phospho-AMPK/β-actin, (E) GLUT4/β-actin and (F) GLUT1/β-actin and are given as mean ± SEM from 3 experiments. *p < 0.05 indicates a significant difference, **(p < 0.01) from the vehicle control group.

Another data set concerns GLUT4myc. Description: Cell surface GLUT4myc (GLUT4 translocation), OPD assay. Conditions: 50 μM, 18 h; L6-GLUT4myc. The data set is classed as cell-based, rat. The method, then: L6-GLUT4myc myotubes grown in 24-well plates were serum-starved for 4 h and were incubated with either CAME or CAEE (50 μM) for 18 h or insulin (100 nM) for 15 min. Cell-surface GLUT4myc levels were measured by an antibody-coupled colorimetric assay (Niu et al. [2003]) using O-phenylenediamine dihydrochloride (OPD) reagent (1 mL/well) (Sigma-Aldrich, St. Louis, MO), an anti-c-myc antibody (1:200 dilution; Santa Cruz Biotechnology, Santa Cruz, CA) and horseradish peroxidase (HRP)-conjugated goat anti-rabbit IgG at 4 °C (1:1000 dilution; Cell Signaling Technologies, Danvers, MA).
as §2, with “Anti-β-actin antibody was used as a loading control. Representative blots are shown in panel C.” left out

Data set [2] relates to AMPK. Description: Western immunoblot phospho-AMPK in L6 myotubes. Type of data set: cell-based, rat. Conditions: 50 μM, 18 h, phospho-AMPK/β-actin. The procedure:
as §1, with “L6 cells myotubes, H4IIE cells and 3T3-L1 adipocytes were treated with either CAME, CAEE (50 μM each) or vehicle (DMSO) for 18 h. Insulin” for “Insulin”
Figure 1. (A) CAME and CAEE increase ^3H-deoxyglucose uptake in L6 GLUT4myc myotubes. Cells were treated with 50 μM of either CAME, CAEE, or with vehicle (0.1% DMSO) for 18 h. 100 nM insulin served as the positive control and was applied for the last 15 min of the treatment in vehicle-treated cells. Glucose uptake was performed as described in Materials and Methods section. […] Cells were treated as previously described, cell surface GLUT4myc was detected by an enzyme-linked colorimetric assay. […] Results represent the means ± SEM of three independent experiments, and 3-4 cells were analyzed for each condition per experiment. *Indicates a significant (p ≤ 0.05) difference, **(p < 0.01) from the vehicle control group as assessed by ANOVA. […] Data are expressed as (D) phospho-AMPK/β-actin, (E) GLUT4/β-actin and (F) GLUT1/β-actin and are given as mean ± SEM from 3 experiments. *p < 0.05 indicates a significant difference, **(p < 0.01) from the vehicle control group.

The structures appear in SMILES notation. Values joined by “and” are separate entries in the source; they are usually repeats but may differ in a detail not shown here. Identical values can stand only once.

On to `CCOC(=O)/C=C/c1ccc(O)c(O)c1` [CAEE, caffeic acid ethyl ester], for which the “phospho-AMPK, fold increase over basal levels” value with AMPK [1] amounted to 2.3 fold. For the same molecule, the toxicity result in the data set on C2C12 cells is given as “no or little toxicity”. Besides, in the data set with L6 GLUT4myc myotubes, the “glucose uptake, percent of DMSO control” value is reported as 216 ± 19% and the 2-deoxyglucose uptake rate worked out at 21.9 ± 1.0 pmol/min/mg protein. The “GLUT4 translocation, fold relative to DMSO” value with GLUT4myc is 1.95 ± 0.30 fold. In the data set on AMPK [2], the “AMPK phosphorylation, fold increase over DMSO” value is listed as 11 fold.

As for `COC(=O)/C=C/c1ccc(O)c(O)c1` [CAME, CA methyl ester], in the data set with AMPK [1], the “phospho-AMPK, fold increase over basal levels” value was determined as 2.4 fold. In the data set with C2C12 cells, the toxicity entry is “no or little toxicity”. In the data set on L6 GLUT4myc myotubes, the “glucose uptake, percent of DMSO control” value was found to be 184 ± 16% and the 2-deoxyglucose uptake rate was found to be 18.7 ± 0.8 pmol/min/mg protein. In the data set with GLUT4myc, the “GLUT4 translocation, fold relative to DMSO” value was 1.73 ± 0.18 fold and 1.79 ± 0.18 fold. Moreover, the “AMPK phosphorylation, fold increase over DMSO” value in the data set on AMPK [2] is reported as 13 fold.
